Marks after values point to notes of the source that are not given here.
Assay: logP by HPLC (EEC Directive 79/831 Annex V.A8)
Assay type: physicochemical
[1] = [b] LC-MS, acidic range, pH 2.7, 0.1% aqueous formic acid and acetonitrile
[2] = [c] LC-MS, neutral range, pH 7.8, 0.001 molar aqueous ammonium bicarbonate and acetonitrile

Compound	logP [1]	logP [2]
Cc1cc(C)cc(CC(=O)N2CCC(c3nc(C(=O)OC4CCCCC4)cs3)CC2)c1 [Example 65]	4.32	4.34
Cc1ccc(CC(=O)N2CCC(c3nc(C(=O)OC4CCCCC4)cs3)CC2)c(C)c1 [Example 66]	4.3	4.33
O=C(OC1CCCCC1)c1csc(C2CCN(C(=S)Nc3cc(F)ccc3F)CC2)n1 [Example 67]	3.86^[b]	–
O=C(OC1CCCc2ccccc21)c1csc(C2(F)CCN(C(=O)Cn3nc(C(F)F)cc3C(F)F)CC2)n1 (centres unmarked) [Example 68]	4.12^[b]	–
O=C(OC1CCCCC1)c1csc(C2(F)CCN(C(=O)Cn3nc(C(F)F)cc3C(F)F)CC2)n1 [Example 69]	3.91^[b]	–
COc1ccc(C)cc1NC(=O)N1CCC(c2nc(C(=O)OC3CCCCC3)cs2)CC1 [Example 71]	4.18^[b]	–
Cc1ccc(Cl)cc1NC(=O)N1CCC(c2nc(C(=O)OC3CCCCC3)cs2)CC1 [Example 72]	4.10^[b]	–
Cc1noc(C)c1NC(=S)N1CCC(c2nc(C(=O)OC3CCCCC3)cs2)CC1 [Example 73]	3.18^[b]	–
Cc1ccc(F)cc1NC(=O)N1CCC(c2nc(C(=O)OC3CCCCC3)cs2)CC1 [Example 74]	3.74^[b]	–
COc1ccc(Cl)cc1NC(=O)N1CCC(c2nc(C(=O)OC3CCCCC3)cs2)CC1 [Example 75]	4.35^[b]	–
Cc1noc(C)c1NC(=O)N1CCC(c2nc(C(=O)OC3CCCCC3)cs2)CC1 [Example 76]	2.66^[b]	–
COc1ccc(OC)c(NC(=O)N2CCC(c3nc(C(=O)OC4CCCc5ccccc54)cs3)CC2)c1 (centres unmarked) [Example 77]	4.05^[b]	–
Cc1ccc(C)c(NC(=O)N2CCC(c3nc(C(=O)OC4CCCc5ccccc54)cs3)CC2)c1 (centres unmarked) [Example 78]	4.09^[b]	–
Cc1ccc(F)cc1NC(=O)N1CCC(c2nc(C(=O)OC3CCCc4ccccc43)cs2)CC1 (centres unmarked) [Example 79]	4.00^[b]	–
Cc1ccc(F)c(NC(=O)N2CCC(c3nc(C(=O)OC4CCCc5ccccc54)cs3)CC2)c1 (centres unmarked) [Example 80]	4.08^[b]	–
Cc1ccc(C)c(NC(=S)N2CCC(c3nc(C(=O)OC4CCCc5ccccc54)cs3)CC2)c1 (centres unmarked) [Example 81]	4.39^[b]	–
COc1ccc(C)cc1NC(=O)N1CCC(c2nc(C(=O)OC3CCCc4ccccc43)cs2)CC1 (centres unmarked) [Example 82]	4.33^[b]	–
O=C(OC1CCCCC1)c1csc(C2CCN(C(=O)CC3CCCC3)CC2)n1 [Example 83]	4.15	4.12
O=C(OCc1ccccc1Br)c1csc(C2CCN(C(=O)Nc3cc(F)ccc3F)CC2)n1 [Example 84]	3.79^[c]; 3.79^[b]	3.79^[c]; 3.79^[b]
Cc1ccc(Cl)cc1NC(=O)N1CCC(c2nc(C(=O)OCc3ccccc3Br)cs2)CC1 [Example 85]	4.04	4.06
Cc1cc(CC(=O)N2CCC(c3nc(C(=O)OC4CCCCC4)cs3)CC2)n(C)n1 [Example 86]	2.6	2.67
O=C(OCc1ccccc1Br)c1csc(C2CCN(C(=O)Cc3cc(Cl)ccc3Cl)CC2)n1 [Example 87]	4.41	4.44
Cc1ccc(C)c(NC(=S)N2CCC(c3nc(C(=O)OCc4ccccc4Br)cs3)CC2)c1 [Example 88]	3.68	3.71

Compound	logP [1]	logP [2]
Cc1cc(CC(=O)N2CCC(c3nc(C(=O)OC4CCCCC4)cs3)CC2)nn1C [Example 89]	2.66	2.68
Cc1ccc(F)cc1NC(=O)N1CCC(c2nc(C(=O)OCc3ccccc3Br)cs2)CC1 [Example 90]	3.77	3.75
Cc1ccc(C)c(NC(=O)N2CCC(c3nc(C(=O)OCc4ccccc4Br)cs3)CC2)c1 [Example 91]	3.86	3.84
Cc1ccc(F)c(NC(=O)N2CCC(c3nc(C(=O)OCc4ccccc4Br)cs3)CC2)c1 [Example 92]	3.85	3.83
COc1ccc(OC)c(NC(=O)N2CCC(c3nc(C(=O)OC4CCCCC4)cs3)CC2)c1 [Example 93]	3.76^[b]	–
Cc1ccc([N+](=O)[O-])cc1NC(=O)N1CCC(c2nc(C(=O)OC3CCCCC3)cs2)CC1 [Example 94]	3.62^[b]	–
O=C(OC1CCCc2ccccc21)c1csc(C2CCN(C(=O)Nc3cc(Cl)ccc3Cl)CC2)n1 (centres unmarked) [Example 95]	4.92^[b]	–
Cc1ccc(C)c(CC(=O)N2CCC(c3nc(C(=O)OC4CCCc5ccccc54)cs3)CC2)c1 (centres unmarked) [Example 96]	4.54^[b]	–
COc1ccc(Cl)cc1NC(=O)N1CCC(c2nc(C(=O)OC3CCCc4ccccc43)cs2)CC1 (centres unmarked) [Example 97]	4.64^[b]	–
Cc1noc(C)c1NC(=O)N1CCC(c2nc(C(=O)OC3CCCc4ccccc43)cs2)CC1 (centres unmarked) [Example 98]	2.97^[b]	–
O=C(OC1CCCc2ccccc21)c1csc(C2CCN(C(=O)Cc3cc(Cl)ccc3Cl)CC2)n1 (centres unmarked) [Example 99]	4.73^[b]	–
Cc1ccc(Cl)c(NC(=O)N2CCC(c3nc(C(=O)OC4CCCc5ccccc54)cs3)CC2)c1 (centres unmarked) [Example 100]	4.61^[b]	–
O=C(OCc1ccccc1Br)c1csc(C2CCN(C(=O)Cc3cc(Br)ccc3Br)CC2)n1 [Example 101]	4.68	4.64
Cc1ccc(C)c(CC(=O)N2CCC(c3nc(C(=O)OCc4ccccc4Br)cs3)CC2)c1 [Example 102]	4.23	4.27
COc1ccc(OC)c(NC(=O)N2CCC(c3nc(C(=O)OCc4ccccc4Br)cs3)CC2)c1 [Example 103]	3.83	3.81
COc1ccc(C)cc1NC(=O)N1CCC(c2nc(C(=O)OCc3ccccc3Br)cs2)CC1 [Example 104]	4.08	4.12
COc1ccc(Cl)cc1NC(=O)N1CCC(c2nc(C(=O)OCc3ccccc3Br)cs2)CC1 [Example 105]	4.35	4.36
O=C(OCc1ccccc1Br)c1csc(C2CCN(C(=O)Nc3cc(C(F)(F)F)ccc3Cl)CC2)n1 [Example 106]	4.7	4.75
Cc1ccc(Cl)c(NC(=O)N2CCC(c3nc(C(=O)OCc4ccccc4Br)cs3)CC2)c1 [Example 107]	4.28	4.33
O=C(OCc1ccccc1Br)c1csc(C2CCN(C(=O)Nc3cc(Cl)ccc3Cl)CC2)n1 [Example 108]	4.56	4.61
Cn1nc(C(F)(F)F)cc1OC(=O)N1CCC(c2nc(C(=O)OC3CCCCC3)cs2)CC1 [Example 109]	4.36	4.37
Cc1ccc([N+](=O)[O-])cc1NC(=O)N1CCC(c2nc(C(=O)OCc3ccccc3Br)cs2)CC1 [Example 110]	3.69	3.70
O=C(OCc1ccccc1Br)c1csc(C2CCN(C(=O)Nc3cc(C(F)(F)F)ccc3F)CC2)n1 [Example 111]	4.29^[c]; 4.29^[b]	4.29^[c]; 4.29^[b]

Compound	logP [1]	logP [2]
Cc1ccc(Cl)cc1NC(=S)N1CCC(c2nc(C(=O)OCc3ccccc3Br)cs2)CC1 [Example 112]	4.3	4.27
O=C(OCc1ccccc1Br)c1csc(C2CCN(C(=S)Nc3cc(Cl)ccc3Cl)CC2)n1 [Example 113]	4.4	4.39
O=C(OCc1ccccc1Br)c1csc(C2CCN(C(=S)Nc3cc(F)ccc3Br)CC2)n1 [Example 114]	4.04	4.02
O=C(OCc1ccccc1Br)c1csc(C2CCN(C(=S)Nc3cc(Cl)ccc3F)CC2)n1 [Example 115]	4.15	4.14
O=C(OCc1ccccc1Br)c1csc(C2CCN(C(=S)Nc3cc(F)ccc3F)CC2)n1 [Example 116]	3.83	3.87
Cc1ccc(F)cc1NC(=S)N1CCC(c2nc(C(=O)OCc3ccccc3Br)cs2)CC1 [Example 117]	3.98^[c]; 3.98^[b]	3.98^[c]; 3.98^[b]
O=C(OCc1ccccc1Br)c1csc(C2CCN(C(=S)Nc3cc(C(F)(F)F)ccc3F)CC2)n1 [Example 118]	4.34	4.37
Cc1noc(C)c1NC(=S)N1CCC(c2nc(C(=O)OCc3ccccc3Br)cs2)CC1 [Example 119]	3.2	3.21
Cc1ccc(C)c(NC(=O)N2CCC(c3nc(C(=O)OCc4c(F)cccc4Cl)cs3)CC2)c1 [Example 120]	3.66^[b]	–
Cc1ccc(C)c(NC(=O)N2CCC(c3nc(C(=O)OCc4c(F)cccc4F)cs3)CC2)c1 [Example 121]	3.38^[b]	–
Cc1ccc(C)c(NC(=O)N2CCC(c3nc(C(=O)O[C@@H]4CCCC[C@H]4c4ccccc4)cs3)CC2)c1 [Example 122]	4.43^[b]	–
Cc1ccc(C)c(NC(=O)N2CCC(c3nc(C(=O)O[C@H]4CCCC[C@@H]4c4ccccc4)cs3)CC2)c1 [Example 123]	4.42^[b]	–
O=C(OC1CCCc2ccccc21)c1csc(C2CCN(C(=S)Nc3cc(F)ccc3F)CC2)n1 (centres unmarked) [Example 124]	4.06	3.94
Cc1ccc(Cl)cc1NC(=O)N1CCC(c2nc(C(=O)OC3CCCc4ccccc43)cs2)CC1 (centres unmarked) [Example 125]	4.27	4.14
Cc1ccc(C)c(NC(=O)N2CCC(F)(c3nc(C(=O)O[C@@H]4CCCc5ccccc54)cs3)CC2)c1 [Example 126]	4.30^[b]	–
Cc1cc(C(F)(F)F)nn1CC(=O)N1CCC(F)(c2nc(C(=O)O[C@@H]3CCCc4ccccc43)cs2)CC1 [Example 127]	4.25^[b]	–
Cc1ccc(C)c(NC(=O)N2CCC(c3nc(C(=O)OCc4ccccc4Cl)cs3)CC2)c1 [Example 135]	3.73^[b]	–
Cc1ccc(C)c(NC(=O)N2CCC(c3nc(C(=O)OCc4ccccc4I)cs3)CC2)c1 [Example 136]	3.96^[b]	–
Cc1ccc(C)c(NC(=O)N2CCC(c3nc(C(=O)OCc4c(Cl)cccc4Cl)cs3)CC2)c1 [Example 137]	3.97^[b]	–
COc1cccc(F)c1C(C)OC(=O)c1csc(C2CCN(C(=O)Nc3cc(C)ccc3C)CC2)n1 (centres unmarked) [Example 138]	3.79^[b]	–
Cc1ccc(C)c(NC(=O)N2CCC(c3nc(C(=O)OCc4ccncc4Cl)cs3)CC2)c1 [Example 139]	2.77^[b]	–
Cc1ccc(C)c(NC(=O)N2CCC(c3nc(C(=O)OCc4ccccc4F)cs3)CC2)c1 [Example 140]	3.39^[b]	–

From patent US8501781B2 (priority 2009, dated 2013)
